Source: patent US11814444B2, “Cyclic polypeptides for PCSK9 inhibition” (Ra Pharmaceuticals, Inc., priority 2018, dated 2023)
Numbered stars: 1 amine (or outer) side, 2 acyl side, 3 side chain; on linkers, the order of the positions; unused ones are H or OH. Bridge positions count the residues as written; N and C are the ends. Square brackets hold non-standard residues; d marks the D form. Peptide text beside a SMILES is read from it. Trp(7-aza) = N[C@@H](Cc1c[nH]c2ncccc12)C(=O)O; NMePhe(4-F) = CN[C@@H](Cc1ccc(F)cc1)C(=O)O; mXylylene = c1cc(C[*:1])cc(C[*:2])c1; pXylylene = c1cc(C[*:2])ccc1C[*:1]; Ala(cPr) = N[C@@H](CC1CC1)C(=O)O; 2Pal = N[C@@H](Cc1ccccn1)C(=O)O; 3Pal = N[C@@H](Cc1cccnc1)C(=O)O; Aic = NC1(C(=O)O)Cc2ccccc2C1; Tle = CC(C)(C)[C@H](N)C(=O)O; αMeV = CC(C)[C@](C)(N)C(=O)O; hSer = N[C@@H](CCO)C(=O)O; Nva = CCC[C@H](N)C(=O)O; Aib = CC(C)(N)C(=O)O; Mpa = O=C(O)CCS

biological target: PCSK9 (Homo sapiens, UniProt Q8NBP7); experiment: PCSK9 Alexa FRET Standard assay (displacement of AlexaFluor647 tagged cyclic peptide Reagent A); assay type: binding; conditions: 0.5 nM PCSK9, 20 nM AF cyclic peptide Reagent A
Sequence (Q8NBP7 153-692): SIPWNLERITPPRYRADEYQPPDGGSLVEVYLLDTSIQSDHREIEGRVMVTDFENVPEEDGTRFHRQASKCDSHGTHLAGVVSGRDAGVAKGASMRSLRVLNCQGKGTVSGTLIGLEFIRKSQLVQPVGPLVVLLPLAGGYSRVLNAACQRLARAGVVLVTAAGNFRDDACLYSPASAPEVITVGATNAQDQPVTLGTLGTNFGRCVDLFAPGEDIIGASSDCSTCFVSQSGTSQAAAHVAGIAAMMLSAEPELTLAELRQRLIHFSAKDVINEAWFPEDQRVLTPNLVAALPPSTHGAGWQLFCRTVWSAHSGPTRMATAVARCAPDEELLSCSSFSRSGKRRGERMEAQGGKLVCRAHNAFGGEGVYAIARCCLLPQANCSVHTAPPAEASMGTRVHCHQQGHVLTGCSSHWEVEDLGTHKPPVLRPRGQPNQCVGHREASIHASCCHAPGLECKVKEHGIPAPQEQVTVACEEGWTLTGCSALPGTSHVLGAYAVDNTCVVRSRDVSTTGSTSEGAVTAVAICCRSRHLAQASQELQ
Description: A solution containing 1 nM biotinylated PCSK9+2.5 nM Lance Streptavidin Europium (Strep-Eu) was made in 50 mM HEPES pH 7.4, 0.15 M NaCl, 5 mM CaCl2), 0.01% BSA, and 0.01% Surfactant P20. A separate solution containing 40 nM of the AlexaFluor tagged cyclic peptide was made in the same buffer system. An Echo was used to transfer 0.750 ul of compound to an assay plate followed by the addition of 15 ul of PCSK9+Stept-Eu and 15 ul of AF peptide. The final assay volume was 30.750 ul containing 0.5 nM PCSK9, 1.25 nM Strep-Eu, and 20 nM AF cyclic peptide. The reaction was incubated at room temperature for at least two hours prior to fluorescence measurements using an Envision Multilabel Reader. IC50 values were determined by fitting data to a sigmoidal dose-response curve using nonlinear regression. Ki was then calculated from the IC50 and the KD of AF cyclic peptide. Counts (B-counts) of the europium-labeled PCSK9 were followed to observe if compounds were […]. A fall off of the B-counts likely indicated a false positive of inhibition. Data from this procedure was reported as “A=‘numerical value’ (nanomolar)”

SMILES | IC50
CCC[C@@H]1NC(=O)[C@H](Cc2c[nH]c3ncccc23)NC(=O)[C@H]([C@@H](C)O)NC(=O)[C@H](Cc2cccnc2)NC(=O)[C@H](Cc2ccc(O)cc2)NC(=O)[C@H](C(C)(C)C)NC(=O)CCSCc2cccc(c2)CSC[C@@H](C(N)=O)NC(=O)[C@H]([C@@H](C)O)NC(=O)[C@H](CCC)NC(=O)[C@H](Cc2ccc(O)cc2)NC(=O)[C@H](CCC(=O)O)NC1=O [Compound 113] ([Mpa][Tle]Y[3Pal]T[Trp(7-aza)][Nva]EY[Nva]TC-NH2; linker 1-12 via mXylylene) | 50 to 100 µM
CCC[C@H](NC(C)=O)C(=O)N[C@H]1CSCc2cccc(c2)CSC[C@@H](C(N)=O)NC(=O)[C@H]([C@@H](C)O)NC(=O)[C@H](CCC)NC(=O)[C@H](Cc2c[nH]c3ncccc23)NC(=O)[C@H](CCC(=O)O)NC(=O)[C@H](CCC)NC(=O)[C@H](Cc2c[nH]c3ncccc23)NC(=O)[C@H]([C@@H](C)O)NC(=O)[C@H](Cc2c[nH]cn2)NC(=O)[C@H](Cc2ccc(O)cc2)NC(=O)[C@H](C(C)(C)C)NC1=O [Compound 243] (Ac-[Nva]C[Tle]YHT[Trp(7-aza)][Nva]E[Trp(7-aza)][Nva]TC-NH2; linker 2-13 via mXylylene) | 50 to 100 µM
CC(=O)N[C@H]1CSCc2cccc(c2)CSC[C@H](C(N)=O)NC(=O)[C@H]([C@@H](C)O)NC(=O)[C@H](C)NC(=O)[C@H](Cc2ccc(O)cc2)NC(=O)[C@H](CCC(=O)O)NC(=O)[C@H](C)NC(=O)[C@H](Cc2c[nH]c3ncccc23)NC(=O)[C@H]([C@@H](C)O)NC(=O)[C@H](Cc2c[nH]cn2)NC(=O)[C@H](Cc2ccc(O)cc2)NC(=O)[C@H](C(C)(C)C)NC1=O [Compound 245] (Ac-C[Tle]YHT[Trp(7-aza)]AEYAT[dC]-NH2; linker 1-12 via mXylylene) | 50 to 100 µM
CCC[C@@H]1NC(=O)[C@H](Cc2c[nH]c3ncccc23)NC(=O)[C@H]([C@@H](C)O)NC(=O)C(C)(C)NC(=O)[C@H](Cc2ccc(O)cc2)NC(=O)[C@H](C(C)(C)C)NC(=O)CCSCc2cccc(c2)CSC[C@@H](C(N)=O)NC(=O)[C@H]([C@@H](C)O)NC(=O)[C@H](CCC)NC(=O)[C@H](Cc2ccc(O)cc2)NC(=O)[C@H](CCC(=O)O)NC1=O [Compound 005] ([Mpa][Tle]Y[Aib]T[Trp(7-aza)][Nva]EY[Nva]TC-NH2; linker 1-12 via mXylylene) | 21 to 50 µM
CCC[C@H](NC(C)=O)C(=O)N[C@H]1CSCc2cccc(c2)CSC[C@@H](C(N)=O)NC(=O)[C@H]([C@@H](C)O)NC(=O)[C@H](CCC)NC(=O)[C@H](Cc2ccc(O)cc2)NC(=O)[C@H](CCC(=O)O)NC(=O)[C@H](CCC)NC(=O)[C@H](C)NC(=O)[C@H]([C@@H](C)O)NC(=O)[C@H](Cc2cnc[nH]2)NC(=O)[C@H](Cc2ccc(O)cc2)NC(=O)[C@H](C(C)(C)C)NC1=O [Compound 230] (Ac-[Nva]C[Tle]YHTA[Nva]EY[Nva]TC-NH2; linker 2-13 via mXylylene) | 50 to 100 µM
CC(=O)N[C@H]1CSCc2cccc(c2)CSC[C@@H](C(N)=O)NC(=O)[C@H]([C@@H](C)O)NC(=O)[C@H](C)NC(=O)[C@H](Cc2ccc(O)cc2)NC(=O)[C@H](CCC(=O)O)NC(=O)[C@H](C)NC(=O)[C@H](Cc2c[nH]c3ncccc23)NC(=O)[C@H]([C@@H](C)O)NC(=O)[C@H](Cc2c[nH]cn2)NC(=O)[C@H](Cc2ccc(O)cc2)NC(=O)[C@H](C(C)(C)C)NC1=O [Compound 242] (Ac-C[Tle]YHT[Trp(7-aza)]AEYATC-NH2; linker 1-12 via mXylylene) | 1 to 21 µM
CCC[C@@H]1NC(=O)[C@H](Cc2ccc(O)cc2)NC(=O)[C@H](CCC(=O)O)NC(=O)[C@H](Cc2c[nH]c3ncccc23)NC(=O)[C@H]([C@@H](C)O)NC(=O)[C@H](Cc2c[nH]cn2)NC(=O)[C@H](Cc2ccc(O)cc2)NC(=O)[C@H](C(C)(C)C)NC(=O)CCSCc2cccc(c2)CSC[C@@H](C(N)=O)NC(=O)[C@H]([C@@H](C)O)NC1=O [Compound 248] ([Mpa][Tle]YHT[Trp(7-aza)]EY[Nva]TC-NH2; linker 1-11 via mXylylene) | 50 to 100 µM
CCC[C@@H]1NC(=O)[C@H](Cc2c[nH]c3ncccc23)NC(=O)[C@H]([C@@H](C)O)NC(=O)[C@H](Cc2ccccn2)NC(=O)[C@H](Cc2ccc(O)cc2)NC(=O)[C@H](C(C)(C)C)NC(=O)CCSCc2cccc(c2)CSC[C@@H](C(N)=O)NC(=O)[C@H]([C@@H](C)O)NC(=O)[C@H](CCC)NC(=O)[C@H](Cc2ccc(O)cc2)NC(=O)[C@H](CCC(=O)O)NC1=O [Compound 114] ([Mpa][Tle]Y[2Pal]T[Trp(7-aza)][Nva]EY[Nva]TC-NH2; linker 1-12 via mXylylene) | 21 to 50 µM
CCC[C@@H]1NC(=O)[C@H](Cc2ccc(O)cc2)NC(=O)[C@H](CCC(=O)O)NC(=O)[C@H](CCC)NC(=O)[C@H]([C@@H](C)O)NC(=O)[C@H](Cc2c[nH]cn2)NC(=O)[C@H](Cc2ccc(O)cc2)NC(=O)[C@H](C(C)(C)C)NC(=O)CCSCc2ccc(cc2)CSC[C@@H](C(N)=O)NC(=O)[C@H]([C@@H](C)O)NC1=O [Compound 251] ([Mpa][Tle]YHT[Nva]EY[Nva]TC-NH2; linker 1-11 via pXylylene) | 50 to 100 µM

The remaining lines, values ahead:

IC50 | SMILES
50 to 100 µM | CCC[C@@H]1NC(=O)[C@H](Cc2c[nH]c3ncccc23)NC(=O)[C@H]([C@@H](C)O)NC(=O)[C@H](Cc2c[nH]cn2)NC(=O)[C@H](Cc2ccc(O)cc2)NC(=O)[C@H](C(C)(C)C)NC(=O)CCSCc2cccc(c2)CSC[C@@H](C(N)=O)NC(=O)[C@H]([C@@H](C)O)NC(=O)[C@H](CCC)NC(=O)[C@H](Cc2ccc(F)cc2)N(C)C(=O)[C@H](CCC(=O)O)NC1=O [Compound 267] ([Mpa][Tle]YHT[Trp(7-aza)][Nva]E[NMePhe(4-F)][Nva]TC-NH2; linker 1-12 via mXylylene)
1 to 21 µM | CCC[C@@H]1NC(=O)[C@H](Cc2c[nH]c3ncccc23)NC(=O)[C@H]([C@@H](C)O)NC(=O)[C@H](Cc2c[nH]cn2)NC(=O)[C@H](Cc2ccc(O)cc2)NC(=O)[C@H](C(C)(C)C)NC(=O)CCSCc2cccc(c2)CSC[C@@H](C(N)=O)NC(=O)[C@H]([C@@H](C)O)NC(=O)[C@H](CC2CC2)NC(=O)[C@H](Cc2ccc(O)cc2)NC(=O)[C@H](CCC(=O)O)NC1=O [Compound 262] ([Mpa][Tle]YHT[Trp(7-aza)][Nva]EY[Ala(cPr)]TC-NH2; linker 1-12 via mXylylene)
50 to 100 µM | CCC[C@@H]1NC(=O)[C@H](Cc2ccccn2)NC(=O)[C@H]([C@@H](C)O)NC(=O)[C@H](Cc2c[nH]cn2)NC(=O)[C@H](Cc2ccc(O)cc2)NC(=O)[C@H](C(C)(C)C)NC(=O)CCSCc2cccc(c2)CSC[C@@H](C(N)=O)NC(=O)[C@H]([C@@H](C)O)NC(=O)[C@H](CCC)NC(=O)[C@H](Cc2ccc(O)cc2)NC(=O)[C@H](CCC(=O)O)NC1=O [Compound 271] ([Mpa][Tle]YHT[2Pal][Nva]EY[Nva]TC-NH2; linker 1-12 via mXylylene)
0.1 to 1 µM | CCC[C@@H]1NC(=O)[C@H](Cc2ccc(O)cc2)NC(=O)[C@H](CCC(=O)O)NC(=O)C(C)(C)NC(=O)[C@H](Cc2c[nH]c3ncccc23)NC(=O)[C@H]([C@@H](C)O)NC(=O)[C@H](Cc2c[nH]cn2)NC(=O)[C@H](Cc2ccc(O)cc2)NC(=O)[C@H](C(C)(C)C)NC(=O)CCSCc2cccc(c2)CSC[C@@H](C(N)=O)NC(=O)[C@H]([C@@H](C)O)NC1=O [Compound 268] ([Mpa][Tle]YHT[Trp(7-aza)][Aib]EY[Nva]TC-NH2; linker 1-12 via mXylylene)
50 to 100 µM | CCC[C@@H]1NC(=O)[C@H](Cc2cccnc2)NC(=O)[C@H]([C@@H](C)O)NC(=O)[C@H](Cc2c[nH]cn2)NC(=O)[C@H](Cc2ccc(O)cc2)NC(=O)[C@H](C(C)(C)C)NC(=O)CCSCc2cccc(c2)CSC[C@@H](C(N)=O)NC(=O)[C@H]([C@@H](C)O)NC(=O)[C@H](CCC)NC(=O)[C@H](Cc2ccc(O)cc2)NC(=O)[C@H](CCC(=O)O)NC1=O [Compound 272] ([Mpa][Tle]YHT[3Pal][Nva]EY[Nva]TC-NH2; linker 1-12 via mXylylene)

biological target: human PCSK9 / human LDLR EGFa domain interaction (Homo sapiens, UniProt Q8NBP7); experiment: TR-FRET assay of inhibition of the PCSK9-LDLR protein-protein interaction; assay type: binding; conditions: 20 nM avitag-biotinylated human PCSK9, 20 nM his-tagged human LDLR EGFa domain, 2 hours, room temperature
Sequence (Q8NBP7 153-692): as above
Sequence (Q8NBP7 31-152 partner limits assumed): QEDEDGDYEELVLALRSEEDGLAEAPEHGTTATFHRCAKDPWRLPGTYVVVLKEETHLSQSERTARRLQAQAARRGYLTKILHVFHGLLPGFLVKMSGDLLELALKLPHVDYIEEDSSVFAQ
How it was run: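 Avitag-biotinylated human PCSK9 (20 nM) and his-tagged human LDLR EGFa domain (20 nM) were incubated with 5 nM Ulight streptavidin and 5 nM europium anti-6×His for 2 h at room temperature. Buffer: 50 mM HEPES, 150 mM NaCl, 5 mM CaCl2, 0.01% BSA, 0.01% P20. IC50 from 4-parameter fit of dose-response.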

IC50 | SMILES
1 to 21 µM | CCC[C@@H]1NC(=O)[C@H](Cc2c[nH]c3ncccc23)NC(=O)[C@H]([C@@H](C)O)NC(=O)[C@@H]2CCCN2C(=O)[C@H](Cc2ccc(O)cc2)NC(=O)[C@H](C(C)(C)C)NC(=O)CCSCc2cccc(c2)CSC[C@@H](C(N)=O)NC(=O)[C@H]([C@@H](C)O)NC(=O)[C@H](CCC)NC(=O)[C@H](Cc2ccc(O)cc2)NC(=O)[C@H](CCO)NC1=O [Compound 158] ([Mpa][Tle]YPT[Trp(7-aza)][Nva][hSer]Y[Nva]TC-NH2; linker 1-12 via mXylylene)
0.1 to 1 µM | CC(=O)N[C@H]1CSCc2cccc(c2)CSC[C@H](C(N)=O)NC(=O)[C@H]([C@@H](C)O)NC(=O)[C@](C)(C(C)C)NC(=O)[C@H](Cc2ccc(O)cc2)NC(=O)[C@H](C)NC(=O)C2(Cc3ccccc3C2)NC(=O)[C@H](Cc2c[nH]c3ncccc23)NC(=O)[C@H]([C@@H](C)O)NC(=O)[C@@H]2CCCN2C(=O)[C@H](Cc2ccc(O)cc2)NC(=O)[C@H](C(C)(C)C)NC1=O [Compound 196] (Ac-C[Tle]YPT[Trp(7-aza)][Aic]AY[αMeV]T[dC]-NH2; linker 1-12 via mXylylene)
